# Source: paper PMC3937006, “Synergism of peptide receptor-targeted Auger electron radiation therapy with anti-angiogenic compounds in a mouse model of neuroendocrine tumors” (EJNMMI Research, 2014)
# Experiments:
# [1] = tested on: GLP-1 receptor-expressing tumor cells established from pancreatic tumors of Rip1Tag2 mice; assay type: cell-based, mouse
# Experimental: A nuclei isolation kit (Nuclei EZ Prep Kit, Sigma-Aldrich Chemie Gmbh, Steinheim, Germany) was used to separate and quantify the amount of radioactivity stored in the nuclei. The preparation was done according to the manufacturer's instructions. The GLP-1 receptor-expressing tumor cells were established from pancreatic tumors of Rip1Tag2 mice, as described previously. The cells were seeded at a density of 2 × 10^7 cells in Petri dishes and incubated overnight. Afterward, 25 pmol ^111In-DTPA-exendin-4 (2.5 MBq) was added to the Petri dishes and incubated at 37°C. The internalization was stopped at 2, 4, and 24 h by removing the medium and by washing the cells four times with 5-ml ice-cold phosphate-buffered saline. Ice-cold nuclei EZ lysis buffer (2 ml) was added, and the cells were scraped with a small bladed cell scraper. The cell lysate was transferred to a separate 15-ml centrifuge tube and set on ice for 5 min. To collect the nuclei, the cell lysate was centrifuged three times at 500 g for 5 min at 4°C. The culture medium, the clear supernatant (cytoplasmatic supernatant), and nucleus pellets were measured radiometrically with a γ-counter.
# [2] = tested on: CD31-positive blood vessels in tumors of Rip1Tag2 mice; assay: Microvessel density, CD31 immunohistochemistry on tumor sections; assay type: in vivo, mouse; details: for microvessel density, CD31-positive blood vessels (median): Rip1Tag2 mice after 7-day therapy, radiopeptide 1.1 MBq, natIn-exendin-4 40 pmol, kinase inhibitor 100 mg/kg p.o.
# [3] = tested on: pancreatic tumors and other organs of Rip1Tag2 mice; details: mouse, in vivo; cited from earlier work
# Text: Thus, the combination with an anti-angiogenic drug that has a different toxicity profile than the radiopeptide reduces the amount of [Lys^40(Ahx-DTPA-^111In)NH2]-exendin-4 and is a more nephroprotective treatment. This is relevant because kidney ...
# [4] = tested on: pancreas, lungs, bowel and kidneys of Rip1Tag2 and C57/Bl6 mice; details: dose of 28 MBq; cited from earlier work
# Text: (§1) We have shown in the Rip1Tag2 mouse model of pancreatic neuroendocrine tumors (pNET) that [Lys^40(Ahx-DTPA-^111In)NH2]-exendin-4 is suitable for molecular imaging of NETs using single-photon emission computed tomography (SPECT). pNETs could be detected down to a size of 1 mm in diameter. In a clinical pilot study, we could localize occult insulinomas that were not detectable using conventional imaging methods.
# [5] = tested on: pancreatic neuroendocrine tumors (pNET) of Rip1Tag2 mice; details: injection of 28 MBq; cited from earlier work
# Text: as §1
# [6] = tested on: pancreatic tumors and other organs of Rip1Tag2 mice; assay type: in vivo, mouse
# Experimental: Male and female Rip1Tag2 mice, 19 to 32 g of weight and 11.6 ± 0.7 weeks old, were stratified according to their age and randomly assigned to the different cohorts. […] Both vatalanib and imatinib were provided by Novartis (Basel, Switzerland). Days (0, 3, 5, and 7 days) after the beginning of vatalanib or imatinib treatment, the mice were injected through the tail vein with 185 kBq (10 ng peptide/2 pmol) [Lys^40(Ahx-DTPA-^111In)NH2]-exendin-4 (^111In-DTPA-exendin-4) in a 100-μl 1% human serum albumin solution diluted in 0.9% NaCl. At 4 h after injection, the mice were sacrificed under isoflurane and CO2 anesthesia. The organs, blood, and tumors were collected, weighed, and the radioactivity in these samples was determined using a γ-counter. The percentage of injected activity (IA)/g tissue was calculated for each tissue.
# GLP-1R = assay: GLP-1 receptor autoradiography of tumors after vatalanib treatment; assay type: in vivo, mouse; details: Rip1Tag2 mice, vatalanib 100 mg/kg p.o. for 4 days, n = 4; 32 pM [125I]-GLP-1; p = 0.98 vs saline control
# Experimental: GLP-1 receptor autoradiography was used to quantify the GLP-1 receptors in the mouse tumors in the presence or absence of vatalanib treatment. The Rip1Tag2 mice were treated with vatalanib as described before for 4 days and sacrificed on day 5. During necropsy, the tumors were snap frozen on dry ice. Tumor sections (20-μm thick) were incubated for 2 h at ambient temperature in the presence of 32 pM [^125I]-GLP-1 (2,000 Ci/mmol). The incubation solution was 170 mM Tris-HCI buffer (pH 8.2) containing 1% bovine serum albumin, bacitracin (40 μg/ml) and MgCl2 (10 mM) to inhibit endogenous proteases. Non-specific binding was determined by adding 100-nM solution of unlabeled GLP-1. The incubated sections were washed twice for 5 min in cold incubation buffer containing 0.25% bovine serum albumin, then in buffer alone, and dried quickly. Finally, the sections were apposed to Biomax MR films (Kodak, Rochester, NY, USA) and exposed for 1 week in X-ray cassettes.
# In all the experiments, the autoradiograms were quantified using a computer-assisted image processing system. Tissue standards for iodinated compounds were used for this purpose.
# [7] = tested on: tumor β-cells of Rip1Tag2 mice; assay: Tumor cell apoptosis, TUNEL assay; assay type: in vivo, mouse; details: Rip1Tag2 mice after 7-day therapy, vatalanib study
# [8] = tested on: pancreatic neuroendocrine tumors (pNET) of Rip1Tag2 mice; assay: Therapy study, tumor volume in Rip1Tag2 mice; details: day 8, radiopeptide 1.1 MBq i.v. once, kinase inhibitor 100 mg/kg p.o. daily for 7 days
Compound,internalized activity accumulated in the nucleus [1],"microvessel density, CD31-positive blood vessels (median) [2]",tumor uptake [3] [% IA/g tumor],renal toxicity [4],reduction of the tumor mass [5] [%],effect on radiopeptide uptake in all the other organs ([6]; vatalanib 100 mg/kg p.o. daily up to 7 days),"reduction of radiopeptide uptake in the kidney ([6]; vatalanib 100 mg/kg p.o. daily, within 7 days, p < 0.001) [%]",decrease of specific tumor uptake of radiopeptide ([6]; within the first 5 days of vatalanib treatment),expression of the GLP-1R on pancreatic tumors by autoradiography (GLP-1R),number of apoptotic cells/0.1 mm^2 (median) [7] [cells/0.1 mm^2],tumor volume treated/volume control (T/C) ratio [8],"effect of pre-treatment on uptake of the radiopeptide ([6]; imatinib 100 mg/kg p.o. daily, independent of organ or time point (0, 3, 5, 7 days))",effect on tumor-associated vessels ([2]; imatinib 100 mg/kg p.o. for 7 days)
[Lys^40(Ahx-DTPA-^111In)NH2]-exendin-4,less than 5%,77 /mm^2,287 ± 62,significant renal radiation damage and consequent chronic renal failure,94,,,,,,,,
Clc1ccc(Nc2nnc(Cc3ccncc3)c3ccccc23)cc1 [vatalanib],,28 /mm^2,,,,unaffected,29.5,more than 50%,"14,176 ± 5,958 dgm/min",1.7,0.26,,
Cc1ccc(NC(=O)c2ccc(CN3CCN(C)CC3)cc2)cc1Nc1nccc(-c2cccnc2)n1 [imatinib],,,,,,,,,,,,did not affect the uptake,no apparent effect
